In BindingDB's records for doi:10.1016/j.bmc.2018.09.008 (Ochanomizu University, 2018):

Assay: Antagonist activity at AR in mouse SC3 cells assessed as inhibition of DHT-induced cell proliferation after 3 days by CCK8 assay

Compound | IC50 [µM]
CN(C)c1ccc(C(=O)Nc2cccc(Oc3ccc(O)cc3)c2)cc1 | 7.4
COc1ccccc1C(=O)Nc1ccc(C)c(Oc2ccc(O)cc2)c1 | 5.3
COc1cccc(C(=O)N(C)c2ccc(Oc3ccc(O)cc3)c(C)c2)c1 | 7.6
COc1cccc(C(=O)Nc2ccc(Oc3ccc(O)cc3)c(Br)c2)c1 | 5.7
COc1cccc(C(=O)Nc2ccc(Oc3ccc(O)cc3)cc2Cl)c1 | 1.7
COc1cccc(C(=O)Nc2cc(Cl)c(Oc3ccc(O)cc3)c(Cl)c2)c1 | 0.48
COc1cccc(C(=O)Nc2ccc(Oc3cccc(O)c3)cc2)c1 | > 10
CN(C)c1ccc(C(=O)Nc2ccc(Oc3cccc(O)c3)cc2)cc1 | 3.2
COc1ccccc1C(=O)Nc1cccc(Oc2ccc(O)cc2)c1 | > 10
COc1ccc(C(=O)Nc2cccc(Oc3ccc(O)cc3)c2)cc1 | > 10
CN(C)c1ccccc1C(=O)Nc1cccc(Oc2ccc(O)cc2)c1 | 6.3
COc1ccc(C(=O)Nc2cc(Oc3ccc(O)cc3)ccc2C)cc1 | > 10
COc1ccc(C(=O)Nc2cccc(Oc3ccc(O)cc3)c2C)cc1 | > 10
COc1ccc(C(=O)Nc2ccc(C)c(Oc3ccc(O)cc3)c2)cc1 | > 10
COc1cccc(C(=O)Nc2cccc(Oc3cccc(O)c3)c2)c1 | > 10
COc1ccc(C(=O)Nc2cccc(Oc3cccc(O)c3)c2)cc1 | > 10
CN(C)c1cccc(C(=O)Nc2cccc(Oc3cccc(O)c3)c2)c1 | > 10
COc1cccc(C(=O)Nc2ccc(Oc3ccc(O)cc3)c(F)c2)c1 | 0.4
COc1cccc(C(=O)Nc2ccc(Oc3ccc(O)cc3)c(Cl)c2)c1 | 0.48
COc1cccc(C(=O)Nc2ccc(Oc3ccc(O)cc3)c(C(F)(F)F)c2)c1 | 4.3
COc1cccc(C(=O)Nc2ccc(Oc3ccc(O)cc3)cc2C)c1 | 3
COc1cccc(C(=O)Nc2ccc(Oc3ccc(O)cc3)cc2F)c1 | 0.65
COc1cccc(C(=O)Nc2ccc(Oc3ccc(O)cc3)cc2OC)c1 | 3.4
COc1cccc(C(=O)Nc2cc(F)c(Oc3ccc(O)cc3)c(F)c2)c1 | 0.51
COc1cccc(C(=O)Nc2ccc(Oc3ccc(O)cc3)c(F)c2F)c1 | 0.53
